target: T1, ALK (Homo sapiens, UniProt Q9UM73); assay: ALK kinase assay (HTRF), apparent Ki; format: biochemical; conditions: apparent Ki from IC50 by Cheng-Prusoff; ALK (Millipore), 50 μM ATP; read-out: HTRF_ALK Human-Ki
T1 construct: purchased Millipore
Experimental: The following procedure is used to determine ALK Activity.
ALK kinase assays were conducted with the indicated final concentrations unless otherwise specified. In 384 well black plates (Axygen), 8 μl of compound (2% DMSO) was incubated with 8 μl Lck-peptide substrate (0.5 μM, biotin-Ahx-GAEEEIYAAFFA-COOH) and 8 μl of a mixture of ALK (3 nM, Millipore) and ATP (50 μM) in reaction buffer (50 mM Hepes, pH 7.4; 10 mM MgCl2; 2 mM MnCl2; 0.1 mM sodium orthovanadate; 0.01% BSA and 1 mM DTT (added fresh before assay) for 1 h at room temperature. Reactions were then quenched by the addition of 30 μl quench solution (streptavidin-allophycocyanin and Europium-cryptate PT66 monoclonal antibody in 40 mM Hepes, pH 7.4; 480 mM KF; 66 mM EDTA; 0.01% Tween-20; and 0.1% BSA) at room temperature. Plates were read 1 h after quenching on an Envision Multilaber Reader and IC50 values were calculated using a sigmoidal fit of the concentration/inhibition response curves. These values were converted to apparent Ki values using the Cheng-Prusoff relationship.
Alternatively, 4 nM ALK (Millipore) and 50 μM ATP were pre-incubated for 30 min at room temperate in 384 well plates (Corning 3676) in 2.5× reaction buffer (125 nM SEB from Cisbio Bioassays, 12.5 mM MgCl2, 5 mM MnCl2, and 2.5 mM DTT). Reactions were initiated by the addition of 4 μl ALK-ATP mixture to 2 μl compounds (2% DMSO) and 4 μl TK-substrate biotin (Cisbio Bioassays). After incubation for 1 h at room temperature, reactions were quenched in 10 μl stop buffer (Cisbio detection buffer containing Streptavididn-XL665 and Eu-Cryptate PT66 monoclonal antibody). Plates were read 1 h after quenching on an Envision Multilaber Reader and IC50 values were calculated using a sigmoidal fit of the concentration/inhibition response curves. These values were converted to apparent Ki values using the Cheng-Prusoff relationship. Results are shown in Table 1 A correlates to an Ki=<100 nM, B correlates to an Ki between 100 nM and 1 μM, C correlates to an Ki=>1 μM.

T1 sequence (Q9UM73 19-1620): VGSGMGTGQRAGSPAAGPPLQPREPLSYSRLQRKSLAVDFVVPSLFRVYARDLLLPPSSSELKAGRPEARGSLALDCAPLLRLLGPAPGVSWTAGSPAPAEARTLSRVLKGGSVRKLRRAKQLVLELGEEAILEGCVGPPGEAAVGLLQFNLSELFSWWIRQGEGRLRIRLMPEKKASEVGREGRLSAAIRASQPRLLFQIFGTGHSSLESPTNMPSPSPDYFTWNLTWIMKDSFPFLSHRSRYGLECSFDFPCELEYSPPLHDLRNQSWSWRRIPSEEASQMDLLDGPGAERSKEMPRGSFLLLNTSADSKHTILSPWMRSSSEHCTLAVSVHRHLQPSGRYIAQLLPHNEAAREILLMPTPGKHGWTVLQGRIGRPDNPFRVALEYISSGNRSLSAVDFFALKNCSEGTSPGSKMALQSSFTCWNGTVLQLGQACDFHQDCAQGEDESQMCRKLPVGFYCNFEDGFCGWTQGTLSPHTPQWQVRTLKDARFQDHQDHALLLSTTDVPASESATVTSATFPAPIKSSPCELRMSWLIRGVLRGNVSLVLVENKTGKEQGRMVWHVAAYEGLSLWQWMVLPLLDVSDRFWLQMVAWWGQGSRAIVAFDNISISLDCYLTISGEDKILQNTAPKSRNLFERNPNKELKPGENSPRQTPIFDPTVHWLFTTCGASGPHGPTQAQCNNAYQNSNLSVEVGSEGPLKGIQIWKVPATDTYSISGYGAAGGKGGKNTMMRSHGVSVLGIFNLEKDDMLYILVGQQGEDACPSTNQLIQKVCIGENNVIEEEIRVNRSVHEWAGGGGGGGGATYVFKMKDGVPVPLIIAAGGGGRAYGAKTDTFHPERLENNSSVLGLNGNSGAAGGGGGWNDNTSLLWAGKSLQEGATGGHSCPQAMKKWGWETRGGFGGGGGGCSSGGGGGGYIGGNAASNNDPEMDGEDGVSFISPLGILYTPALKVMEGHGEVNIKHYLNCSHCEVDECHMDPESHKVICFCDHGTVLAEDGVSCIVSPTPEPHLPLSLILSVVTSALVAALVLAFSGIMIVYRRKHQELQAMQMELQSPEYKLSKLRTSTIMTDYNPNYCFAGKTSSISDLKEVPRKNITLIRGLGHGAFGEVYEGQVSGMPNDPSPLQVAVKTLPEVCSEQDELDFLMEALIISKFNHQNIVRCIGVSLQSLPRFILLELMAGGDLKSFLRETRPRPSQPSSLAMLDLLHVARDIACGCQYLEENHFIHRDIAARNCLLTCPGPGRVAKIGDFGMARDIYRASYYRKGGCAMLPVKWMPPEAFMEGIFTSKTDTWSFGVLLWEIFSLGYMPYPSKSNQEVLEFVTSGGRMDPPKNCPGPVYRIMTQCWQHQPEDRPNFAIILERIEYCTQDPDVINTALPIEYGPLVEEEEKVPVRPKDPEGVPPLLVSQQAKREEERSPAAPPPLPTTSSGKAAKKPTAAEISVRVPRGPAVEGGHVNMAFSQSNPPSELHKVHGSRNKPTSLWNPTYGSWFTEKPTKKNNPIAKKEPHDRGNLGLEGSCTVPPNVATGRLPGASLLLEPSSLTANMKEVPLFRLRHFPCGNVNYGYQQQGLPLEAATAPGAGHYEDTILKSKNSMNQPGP

Ki	SMILES
100 to 1000 nM	CN1CCN(c2ccc(Nc3cc(-c4cccc(C(=O)N(C)C)c4)cnc3C(N)=O)cc2)CC1 [Example 62, 5-[3-(dimethylcarbamoyl)phenyl]-3-{[4-(4-methylpiperazin-1-yl)phenyl]amino}pyridine-2-carboxamide]
> 1000 nM	CN1CCN(c2ccc(Nc3cc(-c4cn[nH]c4)cnc3C(N)=O)cc2)CC1 [Example 63, 3-{[4-(4-methylpiperazin-1-yl)phenyl]amino}-5-(1H-pyrazol-4-yl)pyridine-2-carboxamide]
> 1000 nM	CN1CCN(c2ccc(Nc3cc(-c4cnn(C)c4)cnc3C(N)=O)cc2)CC1 [Example 64, 3-{[4-(4-methylpiperazin-1-yl)phenyl]amino}-5-(1-methyl-1H-pyrazol-4-yl)pyridine-2-carboxamide]
100 to 1000 nM	CN1CCN(c2ccc(Nc3cc(-c4cccc(NS(=O)(=O)CC(F)(F)F)c4)cnc3C(N)=O)cc2)CC1 [Example 65, 3-{[4-(4-methylpiperazin-1-yl)phenyl]amino}-5-(3-{[(2,2,2-trifluoroethyl)sulfonyl]amino}phenyl)pyridine-2-carboxamide]
100 to 1000 nM	CN1CCN(c2ccc(Nc3cc(-c4cccc(NS(=O)(=O)C5CC5)c4)cnc3C(N)=O)cc2)CC1 [Example 66, 5-{3-[(cyclopropylsulfonyl)amino]phenyl}-3-{[4-(4-methylpiperazin-1-yl)phenyl]amino}pyridine-2-carboxamide]
100 to 1000 nM	Cc1oncc1S(=O)(=O)Nc1cccc(-c2cnc(C(N)=O)c(Nc3ccc(N4CCN(C)CC4)cc3)c2)c1 [Example 67, 5-(3-{[(5-methyl-1,2-oxazol-4-yl)sulfonyl]amino}phenyl)-3-{[4-(4-methylpiperazin-1-yl)phenyl]amino}pyridine-2-carboxamide]
< 100 nM	CN1CCN(c2ccc(Nc3cc(-c4cccc(NS(=O)(=O)c5cccs5)c4)cnc3C(N)=O)cc2)CC1 [Example 68, 3-{[4-(4-methylpiperazin-1-yl)phenyl]amino}-5-{3-[(2-thienylsulfonyl)amino]phenyl}pyridine-2-carboxamide]
100 to 1000 nM	CN1CCN(c2ccc(Nc3cc(-c4cccc(NS(=O)(=O)c5ccn(C)n5)c4)cnc3C(N)=O)cc2)CC1 [Example 69, 3-{[4-(4-methylpiperazin-1-yl)phenyl]amino}-5-(3-{[(1-methyl-1H-pyrazol-3-yl)sulfonyl]amino}phenyl)pyridine-2-carboxamide]
100 to 1000 nM	CN1CCN(c2ccc(Nc3cc(Nc4ccccc4)cnc3C(N)=O)cc2)CC1 [Example 70, 5-anilino-3-{[4-(4-methylpiperazin-1-yl)phenyl]amino}pyridine-2-carboxamide]
100 to 1000 nM	CN1CCN(c2ccc(Nc3cc(Nc4ccccc4S(=O)(=O)N(C)C)cnc3C(N)=O)cc2)CC1 [Example 71, 5-{[2-(dimethylsulfamoyl)phenyl]amino}-3-{[4-(4-methylpiperazin-1-yl)phenyl]amino}pyridine-2-carboxamide]
